Results from ChEMBL document CHEMBL3797053, “2-Alkoxy-3-(sulfonylarylaminomethylene)-chroman-4-ones as potent and selective inhibitors of ectonucleotidases” (Eur J Med Chem, 2016).
Active and inactive are the calls of the source. No cut-off for these calls is given here.

Legend:
[1] = target: T1, 5'-nucleotidase (Rattus norvegicus) (UniProt P21588); details: COS-7, 0.5 to 2 uM
T1 sequence (whole entry): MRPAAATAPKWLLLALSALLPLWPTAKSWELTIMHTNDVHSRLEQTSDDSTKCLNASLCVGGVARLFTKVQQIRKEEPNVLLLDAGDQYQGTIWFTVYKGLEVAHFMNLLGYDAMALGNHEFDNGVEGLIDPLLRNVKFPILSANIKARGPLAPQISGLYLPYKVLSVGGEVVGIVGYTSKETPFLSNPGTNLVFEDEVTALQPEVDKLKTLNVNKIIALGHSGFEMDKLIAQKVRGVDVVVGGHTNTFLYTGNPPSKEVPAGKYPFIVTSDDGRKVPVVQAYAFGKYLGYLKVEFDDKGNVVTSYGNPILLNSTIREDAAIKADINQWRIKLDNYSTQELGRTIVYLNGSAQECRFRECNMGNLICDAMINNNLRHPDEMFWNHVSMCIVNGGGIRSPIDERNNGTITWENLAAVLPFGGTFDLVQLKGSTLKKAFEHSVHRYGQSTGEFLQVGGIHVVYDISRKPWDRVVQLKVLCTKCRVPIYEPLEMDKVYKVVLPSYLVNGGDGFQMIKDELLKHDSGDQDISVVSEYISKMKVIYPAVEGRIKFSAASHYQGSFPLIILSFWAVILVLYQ
Description: Uncompetitive inhibition of rat Ecto-5'-nucleotidase transfected in COS7 cells at 0.5 to 2 uM preincubated for 10 mins followed by AMP addition measured after 10 mins by double-reciprocal plot analysis

5'-nucleotidase = target: T2, 5'-nucleotidase (Rattus norvegicus, UniProt P21588); assay: Inhibition of rat Ecto-5'-nucleotidase transfected in COS7 cells preincubated for 10 mins followed by AMP addition measured after 10 mins; assay type: cell-based, COS-7
T2 sequence (P21588 whole entry): T1 sequence (whole entry)

CCOC1Oc2c(Br)cc(Br)cc2C(=O)/C1=C\Nc1cccc(S(N)(=O)=O)c1 (racemic)
inhibition [1]: Active | IC50 (5'-nucleotidase): 583 nM | Ki (5'-nucleotidase): 27 nM
